# Laboratory results as given in patent publication US20230055705A1, “SUBSTITUTED THIOPHENE CARBOXAMIDES AND DERIVATIVES THEREOF” (Bayer Aktiengesellschaft, priority 2019, published 2023).
# How the values were obtained:
# [1] = test system: salicylate responsive promoter sequence of the PR1 (pathogenesis-related protein I) gene (AT2G14610); experiment: Induction of defense gene expression in Arabidopsis thaliana (PR1 promoter-GFP reporter plants); type: in vivo; conditions: Arabidopsis thaliana, 72 h, 3rd day after spraying, mock treated leaves set as 1.00, read-out: relative fluorescence value; for fold induction at 75 ppm: 75 ppm of compound
# Method in brief: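 Transgenic A. thaliana carrying GFP under the salicylate-responsive PR1 promoter, grown five days, then sprayed with compounds. Whole-plant fluorescence imaged and quantified on day 3 post-spray, expressed relative to mock-treated leaf background set at 1.00.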
# [2] = test system: Colletotrichum lindemuthianum; experiment: Colletotrichum lindemuthianum in vitro cell test; type: cell-based; conditions: 144 h, 20 ppm of active ingredient, 6 days incubation, read-out: efficacy (inhibition of fungal growth)
# Procedure: • Solvent: DMSO • Culture medium: 14.6 g anhydrous D-glucose (VWR), 7.1 g Mycological Peptone (Oxoid), 1.4 g granulated Yeast Extract (Merck), QSP 1 liter • Inoculum: spores suspension
# Fungicides were solubilized in DMSO and the solution used to prepare the required range of concentrations. The final concentration of DMSO used in the assay was ≤[…]1%.
# A spore suspension of C. lindemuthianum was prepared and diluted to the desired spore density.
# Fungicides were evaluated for their ability to inhibit spores germination and mycelium growth in liquid culture assay. The compounds were added in the desired concentration to the culture medium with spores. After 6 days incubation, fungi-toxicity of compounds was determined by spectrometric measurement of mycelium growth. Inhibition of fungal growth was determined by comparing the absorbance values in wells containing the fungicides with the absorbance in control wells without fungicides.
# [3] = test system: Xanthomonas campestris pv. campestris; experiment: Xanthomonas campestris pv. campestris in vitro cell test; type: cell-based; conditions: 20 ppm of active ingredient, 24 h incubation, read-out: efficacy (inhibition of bacteria growth)
# Method in brief: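 Bacteria from a liquid pre-culture, diluted to a set OD, were grown in LB broth with compound at the required concentrations (final DMSO ≤1%). After 24 h, growth was read spectrometrically. Inhibition was derived from absorbance versus compound-free controls.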
# [4] = test system: Pseudomonas syringae pv. tomato; experiment: Pseudomonas syringae pv. tomato in vitro cell test; type: cell-based; conditions: 20 ppm of active ingredient, 24 h incubation, read-out: efficacy (inhibition of bacteria growth)
# Method in brief: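 Bacterial suspension pre-cultured and diluted to set OD in LB broth, incubated 24 h with compounds (DMSO, 1% final). Growth read spectrometrically; inhibition calculated from absorbance versus untreated control wells.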
# [5] = test system: Xanthomonas campestris pv. campestris; experiment: In vivo preventive test on Xanthomonas campestris pv. campestris (black rot on cabbage); conditions: evaluated 8 or 10 days after inoculation, read-out: efficacy; for pest or weed control at 31 ppm: 31 ppm of active ingredient; for pest or weed control at 125 ppm: 125 ppm of active ingredient
# Method in brief: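 Young cabbage plants sprayed with compound in acetone/DMSO/Tween diluted in water; solvent-only controls. Leaves sprayed with bacterial suspension 72 h later, then held 8 or 10 days at 27° C and 95% relative humidity. Efficacy scored 8 or 10 days post-inoculation, 0% matching controls, 100% meaning no disease.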
# [6] = test system: Pseudomonas syringae pv. tomato; experiment: In vivo preventive test on Pseudomonas syringae pv. tomato (bacterial speck on tomato); conditions: evaluated 5 or 6 days after inoculation, read-out: efficacy; for pest or weed control at 31 ppm: 31 ppm of active ingredient; for pest or weed control at 500 ppm: 500 ppm of active ingredient
# Method in brief: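 Young tomato plants sprayed with compound in acetone/DMSO/Tween diluted in water; solvent-only controls. Inoculated 72 h later by spraying leaves with bacterial suspension; 4 days saturated atmosphere then 1–2 days at 70–80% RH, 22 °C day/20 °C night. Efficacy scored 5–6 days post-inoculation, 0% = control, 100% = no disease.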
# [7] = LogP by HPLC on reversed phase columns (EEC directive 79/831 Annex V.A8); type: physicochemical
# Method in brief: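 Reversed-phase HPLC per EEC directive 79/831 Annex V.A8. Calibrated with straight-chain alkan-2-ones (C3–C16) of known LogP, LogP from retention times by linear interpolation between successive alkanones. Lambda-max taken from UV spectra (200–400 nm) at chromatographic peak maxima.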
# Alternaria alternata = Alternaria alternata in vitro cell test; type: cell-based; conditions: 120 h, 20 ppm of active ingredient, 5 days incubation, read-out: efficacy (inhibition of fungal growth)
# Method in brief: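 A. alternata spores in liquid glucose-peptone-yeast extract medium were exposed to compounds (DMSO ≤1% final) and incubated 5 days. Mycelial growth was read by absorbance, with inhibition relative to compound-free control wells.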
# [8] = reversed phase HPLC columns, method [a]: LC-UV, in an acidic range, with 0.1% formic acid in water and acetonitrile as eluent (linear gradient from 10% to 95% acetonitrile)
# [9] = reversed phase HPLC columns, method [a]: LC-UV, acidic range, 0.1% formic acid in water and acetonitrile as eluent (linear gradient 10% to 95% acetonitrile)
# [10] = reversed phase HPLC columns, given in the preparation examples, method not marked
Structure (SMILES),"chromatographic logP [7, 8]","chromatographic logP [7, 9]","chromatographic logP [7, 10]",fold induction at 75 ppm [1],fold induction at 300 ppm [1],inhibition at 20 ppm [2],inhibition at 20 ppm [3],inhibition at 20 ppm [4],pest or weed control at 31 ppm [5],pest or weed control at 31 ppm [6],inhibition at 20 ppm (Alternaria alternata),pest or weed control at 500 ppm [6],pest or weed control at 125 ppm [5],"chromatographic logP ([7]; method [a]: LC-UV, acidic range, 0.1% formic acid in water and acetonitrile as eluent (linear gradient 10% to 95% acetonitrile))"
COC(=O)C(Cc1c[nH]cn1)NC(=O)c1sc(Cl)c(Cl)c1Cl (stereo not drawn) [I.012],1.5,,,> 2,> 2,≤ 30%,≤ 30%,≤ 30%,80 to 89%,≥ 70%,,,,
COC(=O)[C@H](CCCNC(=N)N)NC(=O)c1sc(Cl)c(Cl)c1Cl [I.008],1.73,,,> 2,> 2,≤ 30%,≤ 30%,≤ 30%,80 to 89%,,≤ 30%,70 to 79%,,
COC(=O)[C@H](CC(N)=O)NC(=O)c1sc(Cl)c(Cl)c1Cl [I.015],2.16,,,> 2,> 2,≤ 30%,≤ 30%,≤ 30%,90 to 100%,80 to 89%,≤ 30%,,,
"O=C(O)CNC(=S)c1sc(Cl)c(Cl)c1Cl [I.022, N-[(3,4,5-trichloro-2-thienyl)carbonothioyl]glycine]",3.17,,3.17,> 2,,≤ 30%,≤ 30%,≤ 30%,,,≤ 30%,90 to 100%,,
CCOC(=O)C(C#N)NC(=O)c1sc(Cl)c(Cl)c1Cl (stereo not drawn) [I.009],3.31,,,> 2,> 2,≤ 30%,≤ 30%,≤ 30%,90 to 100%,,≤ 30%,90 to 100%,90 to 100%,
COC(=O)C(CC(F)F)NC(=O)c1sc(Cl)c(Cl)c1Cl (stereo not drawn) [I.016],3.55,,,> 2,> 2,≤ 30%,≤ 30%,≤ 30%,90 to 100%,70 to 79%,≤ 30%,90 to 100%,,
COC(=O)[C@H](CSC(=O)N(C)C)NC(=O)c1sc(Cl)c(Cl)c1Cl [I.142],,,,> 2,> 2,,≤ 30%,≤ 30%,80 to 89%,70 to 79%,≤ 30%,,90 to 100%,3.56

# Further lines, with some results ahead:
"chromatographic logP [7, 8]","chromatographic logP [7, 9]","chromatographic logP [7, 10]",Structure (SMILES),fold induction at 75 ppm [1],fold induction at 300 ppm [1],inhibition at 20 ppm [2],inhibition at 20 ppm [3],inhibition at 20 ppm [4],pest or weed control at 31 ppm [5],pest or weed control at 31 ppm [6],inhibition at 20 ppm (Alternaria alternata),pest or weed control at 500 ppm [6],pest or weed control at 125 ppm [5],"chromatographic logP ([7]; method [a]: LC-UV, acidic range, 0.1% formic acid in water and acetonitrile as eluent (linear gradient 10% to 95% acetonitrile))"
2.16,,,C[C@H](NC(=O)c1sc(Cl)c(Cl)c1Cl)C(N)=O [I.119],> 2,> 2,≤ 30%,≤ 30%,≤ 30%,,70 to 79%,≤ 30%,90 to 100%,,
3.5,,,C[C@H](NC(=S)c1sc(Cl)c(Cl)c1Cl)C(=O)O [I.113],> 2,> 2,≤ 30%,≤ 30%,≤ 30%,80 to 89%,,≤ 30%,,,
,4.29,,CCOC(=O)C(CSC)NC(=O)c1sc(Cl)c(Cl)c1Cl (stereo not drawn) [I.143],> 2,> 2,≤ 30%,≤ 30%,≤ 30%,90 to 100%,90 to 100%,≤ 30%,,80 to 89%,
2.35,,,CCOC(=O)C(CC(N)=O)NC(=O)c1sc(Cl)c(Cl)c1Cl (stereo not drawn) [I.046],> 2,> 2,≤ 30%,≤ 30%,≤ 30%,90 to 100%,,≤ 30%,,90 to 100%,
,3.28,,COC(=O)C[C@H](NC(=O)c1sc(Cl)c(Cl)c1Cl)C(=O)OC [I.144],> 2,> 2,,≤ 30%,≤ 30%,80 to 89%,80 to 89%,≤ 30%,,,
4.05,,4.05,"COC(=O)CNC(=S)c1sc(Cl)c(Cl)c1Cl [I.038, methyl N-[(3,4,5-trichloro-2-thienyl)carbonothioyl]glycinate]",,> 2,≤ 30%,≤ 30%,≤ 30%,80 to 89%,,≤ 30%,70 to 79%,80 to 89%,
4.27,,,CCOC(=O)C(CC(F)(F)F)NC(=O)c1sc(Cl)c(Cl)c1Cl (stereo not drawn) [I.048],> 2,> 2,≤ 30%,≤ 30%,≤ 30%,,,≤ 30%,70 to 79%,90 to 100%,
